{
  "source": "patent US9474790B2",
  "about": "“Stable, protracted GLP-1/glucagon receptor co-agonists for medical use” (Novo Nordisk A/S, priority 2013, dated 2016)",
  "note": "Numbered stars: 1 amine (or outer) side, 2 acyl side, 3 side chain; on linkers, the order of the positions; unused ones are H or OH. Bridge positions count the residues as written; N and C are the ends. Square brackets hold non-standard residues; d marks the D form. Side chains are listed from the residue outwards. Peptide text beside a SMILES is read from it. I, II: the chains in the order shown. * marks the point of attachment. C18 diacid = O=C(O)CCCCCCCCCCCCCCCCC(=O)*; γGlu = O=C(O)[C@H](CCC(=O)[*:2])N[*:1]; Ac4c = NC1(C(=O)O)CCC1; AEEA = NCCOCCOCC(=O)O; Aib = CC(C)(N)C(=O)O",
  "data": [
    {"experiment": "Thioflavin T (ThT) fibrillation assay for physical stability", "type": "physicochemical", "conditions": "250 μM in 10 mM HEPES buffer, pH 7.5, 37° C., shaking 960 rpm", "how_it_was_run": "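Peptide at 250 μM in 10 mM HEPES pH 7.5 with 1 μM ThT, at 37° C with 960 rpm orbital shaking. Fluorescence (ex 444/em 485 nm) read every 20 min after 10 min pre-incubation; sigmoidal fit gives lag time (t0−2τ) and kapp (1/τ). Recovery is RP-HPLC peptide in the centrifuged, 0.22 μm-filtered supernatant as % of initial.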", "units": {"THT assay Lag time (Ex. 76)": "h"}, "values": [
      {"molecule": "CC(C)C[C@H](NC(=O)[C@H](Cc1ccc(O)cc1)NC(=O)[C@H](CCCCN)NC(=O)[C@H](CO)NC(=O)[C@H](CC(C)C)NC(=O)[C@H](CC(=O)O)NC(=O)[C@H](CO)NC(=O)[C@@H](NC(=O)[C@H](Cc1ccccc1)NC(=O)[C@@H](NC(=O)CNC(=O)[C@H](Cc1c[nH]cn1)NC(=O)C1(NC(=O)[C@@H](N)Cc2c[nH]cn2)CCC1)[C@@H](C)O)[C@@H](C)O)C(=O)N[C@@H](CCC(=O)O)C(=O)N[C@@H](CO)C(=O)N[C@@H](CCCNC(=N)N)C(=O)N[C@@H](CCCNC(=N)N)C(=O)N[C@@H](C)C(=O)N[C@@H](CCC(N)=O)C(=O)N[C@@H](CC(=O)O)C(=O)N[C@@H](Cc1ccccc1)C(=O)N[C@H](C(=O)N[C@@H](CCC(N)=O)C(=O)N[C@@H](Cc1c[nH]c2ccccc12)C(=O)N[C@@H](CC(C)C)C(=O)N[C@@H](CC(C)C)C(=O)N[C@@H](CCCCNC(=O)CNC(=O)[C@H](CO)NC(=O)[C@H](CCC(=O)O)NC(=O)CNC(=O)[C@H](CO)NC(=O)CC[C@H](NC(=O)CC[C@H](NC(=O)CCCCCCCCCCCCCCCCC(=O)O)C(=O)O)C(=O)O)C(=O)N[C@H](C(N)=O)[C@@H](C)O)C(C)C", "note": "[Example 35, N^ε28-[2-[[(2S)-2-[[(2S)-4-carboxy-2-[[2-[[(2S)-2-[[(4S)-4-carboxy-4-[[(4S)-4-carboxy-4-(17-carboxyheptadecanoylamino)butanoyl]amino]butanoyl]amino]-3-hydroxypropanoyl]amino]acetyl]amino]butanoyl]amino]-3-hydroxypropanoyl]amino]acetyl]-[Acb2,His3,Leu10,Glu15, Leu27,Lys28]-Glucagon amide] (I: H-H[Ac4c]HGTFTSDLSKYLESRRAQDFVQWLLKT-NH2 / II: {C18 diacid-γGlu-γGlu}-SGESG; amide I:28-II:C; N-terminus assumed)", "THT assay Lag time (Ex. 76)": 45},
      {"molecule": "CC(C)C[C@H](NC(=O)[C@H](Cc1ccc(O)cc1)NC(=O)[C@H](CCCCN)NC(=O)[C@H](CO)NC(=O)[C@H](CC(C)C)NC(=O)[C@H](CC(=O)O)NC(=O)[C@H](CO)NC(=O)[C@@H](NC(=O)[C@H](Cc1ccccc1)NC(=O)[C@@H](NC(=O)CNC(=O)[C@H](CCC(N)=O)NC(=O)C1(NC(=O)[C@@H](N)Cc2c[nH]cn2)CCC1)[C@@H](C)O)[C@@H](C)O)C(=O)N[C@@H](CCC(=O)O)C(=O)N[C@@H](CO)C(=O)N[C@@H](CCCCN)C(=O)N[C@@H](CCCNC(=N)N)C(=O)N[C@@H](C)C(=O)N[C@@H](CCCNC(=N)N)C(=O)N[C@@H](CCC(=O)O)C(=O)N[C@@H](Cc1ccccc1)C(=O)N[C@H](C(=O)N[C@@H](CCC(N)=O)C(=O)N[C@@H](Cc1c[nH]c2ccccc12)C(=O)N[C@@H](CC(C)C)C(=O)N[C@@H](CC(C)C)C(=O)N[C@@H](CCCCNC(=O)CNC(=O)[C@H](CO)NC(=O)[C@H](CCC(=O)O)NC(=O)CNC(=O)[C@H](CO)NC(=O)CC[C@H](NC(=O)CC[C@H](NC(=O)CCCCCCCCCCCCCCCCC(=O)O)C(=O)O)C(=O)O)C(=O)N[C@H](C(N)=O)[C@@H](C)O)C(C)C", "note": "[Example 36, N^ε28-[2-[[(2S)-2-[[(2S)-4-carboxy-2-[[2-[[(2S)-2-[[(4S)-4-carboxy-4-[[(4S)-4-carboxy-4-(17-carboxyheptadecanoylamino)butanoyl]amino]butanoyl]amino]-3-hydroxypropanoyl]amino]acetyl]amino]butanoyl]amino]-3-hydroxypropanoyl]amino]acetyl]-[Acb2,Leu10,Glu15,Lys17, Arg20,Glu21,Leu27,Lys28]-Glucagon amide] (I: H-H[Ac4c]QGTFTSDLSKYLESKRAREFVQWLLKT-NH2 / II: {C18 diacid-γGlu-γGlu}-SGESG; amide I:28-II:C; N-terminus assumed)", "THT assay Lag time (Ex. 76)": 45},
      {"molecule": "CC(C)C[C@H](NC(=O)[C@H](Cc1ccc(O)cc1)NC(=O)[C@H](CCCCN)NC(=O)[C@H](CO)NC(=O)[C@H](CC(C)C)NC(=O)[C@H](CC(=O)O)NC(=O)[C@H](CO)NC(=O)[C@@H](NC(=O)[C@H](Cc1ccccc1)NC(=O)[C@@H](NC(=O)CNC(=O)[C@H](Cc1c[nH]cn1)NC(=O)C(C)(C)NC(=O)[C@@H](N)Cc1c[nH]cn1)[C@@H](C)O)[C@@H](C)O)C(=O)N[C@@H](CCC(=O)O)C(=O)N[C@@H](CO)C(=O)N[C@@H](CCCNC(=N)N)C(=O)N[C@@H](CCCNC(=N)N)C(=O)N[C@@H](C)C(=O)N[C@@H](CCCNC(=N)N)C(=O)N[C@@H](CC(=O)O)C(=O)N[C@@H](Cc1ccccc1)C(=O)N[C@H](C(=O)N[C@@H](CCC(N)=O)C(=O)N[C@@H](Cc1c[nH]c2ccccc12)C(=O)N[C@@H](CC(C)C)C(=O)N[C@@H](CC(C)C)C(=O)N[C@@H](CCCCNC(=O)CNC(=O)[C@H](CO)NC(=O)[C@H](CCC(=O)O)NC(=O)CNC(=O)[C@H](CO)NC(=O)CC[C@H](NC(=O)CC[C@H](NC(=O)CCCCCCCCCCCCCCCCC(=O)O)C(=O)O)C(=O)O)C(=O)N[C@H](C(N)=O)[C@@H](C)O)C(C)C", "note": "[Example 37, N^ε28-[2-[[(2S)-2-[[(2S)-4-carboxy-2-[[2-[[(2S)-2-[[(4S)-4-carboxy-4-[[(4S)-4-carboxy-4-(17-carboxyheptadecanoylamino)butanoyl]amino]butanoyl]amino]-3-hydroxypropanoyl]amino]acetyl]amino]butanoyl]amino]-3-hydroxypropanoyl]amino]acetyl]-[Aib2,His3,Leu10,Glu15, Arg20,Leu27,Lys28]-Glucagon amide] (I: H-H[Aib]HGTFTSDLSKYLESRRARDFVQWLLKT-NH2 / II: {C18 diacid-γGlu-γGlu}-SGESG; amide I:28-II:C; N-terminus assumed)", "THT assay Lag time (Ex. 76)": 45},
      {"molecule": "CC(C)C[C@H](NC(=O)[C@H](Cc1ccc(O)cc1)NC(=O)[C@H](CCCCN)NC(=O)[C@H](CO)NC(=O)[C@H](CC(C)C)NC(=O)[C@H](CC(=O)O)NC(=O)[C@H](CO)NC(=O)[C@@H](NC(=O)[C@H](Cc1ccccc1)NC(=O)[C@@H](NC(=O)CNC(=O)[C@H](CCC(N)=O)NC(=O)C(C)(C)NC(=O)[C@@H](N)Cc1c[nH]cn1)[C@@H](C)O)[C@@H](C)O)C(=O)N[C@@H](CC(=O)O)C(=O)N[C@@H](C)C(=O)N[C@@H](CCCNC(=N)N)C(=O)N[C@@H](CCCNC(=N)N)C(=O)N[C@@H](C)C(=O)N[C@@H](CCCNC(=N)N)C(=O)N[C@@H](CCC(=O)O)C(=O)N[C@@H](Cc1ccccc1)C(=O)N[C@H](C(=O)N[C@@H](CCC(N)=O)C(=O)N[C@@H](Cc1c[nH]c2ccccc12)C(=O)N[C@@H](CC(C)C)C(=O)N[C@@H](CC(C)C)C(=O)N[C@@H](CC(N)=O)C(=O)N[C@@H](CCCCNC(=O)CC[C@H](NC(=O)CC[C@H](NC(=O)COCCOCCNC(=O)CC[C@H](NC(=O)CCCCCCCCCCCCCCCCC(=O)O)C(=O)O)C(=O)O)C(=O)O)C(N)=O)C(C)C", "note": "[Example 39, N^ε29-[(4S)-4-carboxy-4-[[(4S)-4-carboxy-4-[[2-[2-[2-[[(4S)-4-carboxy-4-(17-carboxyheptadecanoylamino)butanoyl]amino]ethoxy]ethoxy]acetyl]amino]butanoyl]amino]butanoyl]-[Aib2,Leu10,Ala16,Arg20,Glu21,Leu27,Lys29]-Glucagon amide] (H-H[Aib]QGTFTSDLSKYLDARRAREFVQWLLNK([γGlu-γGlu-AEEA-γGlu-C18 diacid])-NH2; N-terminus assumed)", "THT assay Lag time (Ex. 76)": 45},
      {"molecule": "CC(C)C[C@H](NC(=O)[C@H](CC(C)C)NC(=O)[C@H](Cc1c[nH]c2ccccc12)NC(=O)[C@H](CCC(N)=O)NC(=O)[C@@H](NC(=O)[C@H](Cc1ccccc1)NC(=O)[C@H](CCC(=O)O)NC(=O)[C@H](CCCNC(=N)N)NC(=O)[C@H](C)NC(=O)[C@H](CCCNC(=N)N)NC(=O)[C@H](CCCNC(=N)N)NC(=O)[C@H](CO)NC(=O)[C@H](CCC(=O)O)NC(=O)[C@H](CC(C)C)NC(=O)[C@H](Cc1ccc(O)cc1)NC(=O)[C@H](CCCCN)NC(=O)[C@H](CO)NC(=O)[C@H](CC(C)C)NC(=O)[C@H](CC(=O)O)NC(=O)[C@H](CO)NC(=O)[C@@H](NC(=O)[C@H](Cc1ccccc1)NC(=O)[C@@H](NC(=O)CNC(=O)[C@H](CCC(N)=O)NC(=O)C(C)(C)NC(=O)[C@@H](N)Cc1c[nH]cn1)[C@@H](C)O)[C@@H](C)O)C(C)C)C(=O)N[C@@H](CC(N)=O)C(=O)N[C@@H](CCCCNC(=O)CC[C@H](NC(=O)CC[C@H](NC(=O)COCCOCCNC(=O)CC[C@H](NC(=O)CCCCCCCCCCCCCCCCC(=O)O)C(=O)O)C(=O)O)C(=O)O)C(N)=O", "note": "[Example 40, N^ε29-[(4S)-4-carboxy-4-[[(4S)-4-carboxy-4-[[2-[2-[2-[[(4S)-4-carboxy-4-(17-carboxyheptadecanoylamino)butanoyl]amino]ethoxy]ethoxy]acetyl]amino]butanoyl]amino]butanoyl]-[Aib2,Leu10,Glu15,Arg20,Glu21,Leu27,Lys29]-Glucagon amide] (H-H[Aib]QGTFTSDLSKYLESRRAREFVQWLLNK([γGlu-γGlu-AEEA-γGlu-C18 diacid])-NH2; N-terminus assumed)", "THT assay Lag time (Ex. 76)": 40},
      {"molecule": "CC(C)C[C@H](NC(=O)[C@H](Cc1ccc(O)cc1)NC(=O)[C@H](CCCCN)NC(=O)[C@H](CO)NC(=O)[C@H](CC(C)C)NC(=O)[C@H](CC(=O)O)NC(=O)[C@H](CO)NC(=O)[C@@H](NC(=O)[C@H](Cc1ccccc1)NC(=O)[C@@H](NC(=O)CNC(=O)[C@H](CCC(N)=O)NC(=O)C(C)(C)NC(=O)[C@@H](N)Cc1c[nH]cn1)[C@@H](C)O)[C@@H](C)O)C(=O)N[C@@H](CCC(=O)O)C(=O)N[C@@H](CO)C(=O)N[C@@H](CCCNC(=N)N)C(=O)N[C@@H](CCCNC(=N)N)C(=O)N[C@@H](C)C(=O)N[C@@H](CCCNC(=N)N)C(=O)N[C@@H](CCC(=O)O)C(=O)N[C@@H](Cc1ccccc1)C(=O)N[C@H](C(=O)N[C@@H](CCC(N)=O)C(=O)N[C@@H](Cc1c[nH]c2ccccc12)C(=O)N[C@@H](CC(C)C)C(=O)N[C@@H](CC(C)C)C(=O)N[C@@H](CCCCNC(=O)CC[C@H](NC(=O)CC[C@H](NC(=O)CC[C@H](NC(=O)CCCCCCCCCCCCCCCCC(=O)O)C(=O)O)C(=O)O)C(=O)O)C(=O)N[C@H](C(N)=O)[C@@H](C)O)C(C)C", "note": "[Example 41, N^ε28-[(4S)-4-carboxy-4-[[(4S)-4-carboxy-4-[[(4S)-4-carboxy-4-(17-carboxyheptadecanoylamino)butanoyl]amino]butanoyl]amino]butanoyl]-[Aib2,Leu10,Glu15, Arg20,Glu21,Leu27,Lys28]-Glucagon amide] (H-H[Aib]QGTFTSDLSKYLESRRAREFVQWLLK([γGlu-γGlu-γGlu-C18 diacid])T-NH2; N-terminus assumed)", "THT assay Lag time (Ex. 76)": 45}
    ]}
  ]
}
